# Source: US9694016B2 (Novartis AG, priority 2013, dated 2017)
# Biological target: b-Raf (V600E) (Homo sapiens (Human), UniProt P15056, V600E)
# Conditions: read-out: b-Raf IC-50; AlphaScreen, 60 min pre-incubation, 3 hours reaction
# Sequence of b-Raf (V600E) (P15056 whole entry V600E): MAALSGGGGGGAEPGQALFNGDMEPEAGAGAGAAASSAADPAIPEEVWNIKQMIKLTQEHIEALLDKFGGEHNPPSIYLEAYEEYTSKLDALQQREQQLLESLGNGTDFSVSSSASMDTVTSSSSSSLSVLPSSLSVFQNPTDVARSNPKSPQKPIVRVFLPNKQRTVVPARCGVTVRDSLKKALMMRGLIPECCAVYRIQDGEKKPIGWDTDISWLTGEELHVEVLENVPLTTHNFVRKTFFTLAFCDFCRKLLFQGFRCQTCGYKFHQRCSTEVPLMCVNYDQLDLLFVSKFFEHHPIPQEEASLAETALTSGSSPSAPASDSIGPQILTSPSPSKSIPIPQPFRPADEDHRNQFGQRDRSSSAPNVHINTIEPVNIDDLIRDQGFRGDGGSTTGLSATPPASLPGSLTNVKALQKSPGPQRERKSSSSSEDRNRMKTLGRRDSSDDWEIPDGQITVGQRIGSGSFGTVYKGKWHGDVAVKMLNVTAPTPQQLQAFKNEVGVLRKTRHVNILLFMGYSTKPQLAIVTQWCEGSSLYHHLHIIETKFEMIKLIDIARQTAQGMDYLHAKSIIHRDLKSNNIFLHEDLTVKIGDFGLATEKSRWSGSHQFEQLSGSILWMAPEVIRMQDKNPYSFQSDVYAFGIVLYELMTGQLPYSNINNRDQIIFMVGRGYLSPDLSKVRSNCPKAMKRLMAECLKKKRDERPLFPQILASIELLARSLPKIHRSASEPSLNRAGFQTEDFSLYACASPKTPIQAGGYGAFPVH
row,Compound,IC50
1,"Cc1ccc(NC(=O)c2cccc(C(F)(F)F)c2)cc1-c1nc2c(c(N3CCOCC3)n1)CNCC2 [Example 835, N-(4-methyl-3-(4-morpholino-5,6,7,8-tetrahydropyrido[4,3-d]pyrimidin-2-yl)phenyl)-3-(trifluoromethyl)benzamide]",2.1 nM
2,"Cc1ncc(NC(=O)c2cccc(C(F)(F)F)c2)cc1-c1cc(N2CCOCC2)nc(C(C)(C)O)n1 [Example 788, N-(5-(2-(2-hydroxypropan-2-yl)-6-morpholinopyrimidin-4-yl)-6-methylpyridin-3-yl)-3-(trifluoromethyl)benzamide]",200 nM

# The next lines start with the values.
row,IC50,Compound
1,1.4 nM,"CCc1cc(C(=O)Nc2ccc(C)c(-c3cc(N4CCOCC4)c(=O)n(C)n3)c2)ccn1 [Example 642, 2-ethyl-N-(4-methyl-3-(1-methyl-5-morpholino-6-oxo-1,6-dihydropyridazin-3-yl)phenyl)isonicotinamide]"
2,3 nM,"Cc1ccc(NC(=O)c2cccc(C3COC3)c2)cc1-c1cc(N2CCOCC2)n(C)c(=O)c1 [Example 492, N-(4-methyl-3-(1-methyl-6-morpholino-2-oxo-1,2-dihydropyridin-4-yl)phenyl)-3-(oxetan-3-yl)benzamide]"
3,2.8 nM,"COCCN(C)c1cc(C(=O)Nc2ccc(C)c(-c3cc(N4CCOCC4)c(=O)n(C)c3)c2)ccn1 [Example 455, 2-((2-methoxyethyl)(methyl)amino)-N-(4-methyl-3-(1-methyl-5-morpholino-6-oxo-1,6-dihydropyridin-3-yl)phenyl)isonicotinamide]"
4,2.9 nM,Cc1ncc(NC(=O)c2cccc(C(F)(F)F)c2)cc1-c1ccc(C#N)c(N2CCOCC2)c1 [Example 684]
5,4.5 nM,"Cc1ccc(C(=O)Nc2cccc(C(C)(C)C#N)c2)cc1-c1cc(N2CCOCC2)n(C)c(=O)c1 [Example 515, N-(3-(2-cyanopropan-2-yl)phenyl)-4-methyl-3-(1-methyl-6-morpholino-2-oxo-1,2-dihydropyridin-4-yl)benzamide]"
6,3.4 nM,"CCNc1nc(-c2cc(NC(=O)c3cnnc(C(C)(C)C#N)c3)ccc2C)cc(N2CCOCC2)n1 [Example 709, 6-(2-cyanopropan-2-yl)-N-(3-(2-(ethylamino)-6-morpholinopyrimidin-4-yl)-4-methylphenyl)pyridazine-4-carboxamide]"
7,30.5 nM,"CNCCN(C)c1cc(C(=O)Nc2ccc(C)c(-c3cc(N4CCOCC4)c(=O)n(C)c3)c2)ccn1 [Example 457, 2-(methyl(2-(methylamino)ethyl)amino)-N-(4-methyl-3-(1-methyl-5-morpholino-6-oxo-1,6-dihydropyridin-3-yl)phenyl)isonicotinamide]"
8,3.1 nM,"Cc1ncc(NC(=O)c2cccc(C(F)F)c2)cc1-c1cc(N2CCOCC2)c(=O)n(C)n1 [Example 681, 3-(difluoromethyl)-N-(6-methyl-5-(1-methyl-5-morpholino-6-oxo-1,6-dihydropyridazin-3-yl)pyridin-3-yl)benzamide]"

# Same assay, conditions: read-out: b-Raf IC-50; AlphaScreen, 60 min pre-incubation, reaction 3 hours at room temperature
row,Compound,IC50
1,"Cc1ncc(NC(=O)c2ccnc(C3CC3)c2)cc1-c1cc(NCCO)nc(N2CCOCC2)c1 [Example 1057, 2-cyclopropyl-N-(2′-((2-hydroxyethyl)amino)-2-methyl-6′-morpholino-[3,4′-bipyridin]-5-yl)isonicotinamide]",4.12 nM
2,"Cc1ccc(NC(=O)c2cnnc(C3CC3)c2)cc1-c1cc(OC2CCOCC2)nc(N2CCOCC2)c1 [Example 1154, 6-cyclopropyl-N-(4-methyl-3-(2-morpholino-6-((tetrahydro-2H-pyran-4-yl)oxy)pyridin-4-yl)phenyl)pyridazine-4-carboxamide]",0.6 nM
3,"CCn1cc(C(=O)Nc2cnc(C)c(-c3cc(N4CCOCC4)nc(N4CCOCC4)c3)c2)cc(C(F)(F)F)c1=O [Example 1125, 1-ethyl-N-(2-methyl-2′,6′-dimorpholino-[3,4′-bipyridin]-5-yl)-6-oxo-5-(trifluoromethyl)-1,6-dihydropyridine-3-carboxamide]",10 nM
4,"Cc1ccc(NC(=O)c2cnncc2C(F)F)cc1-c1cc(N2CCOCC2)nc(N2CC(O)C2)c1 [Example 1075, 5-(difluoromethyl)-N-(3-(2-(3-hydroxyazetidin-1-yl)-6-morpholinopyridin-4-yl)-4-methylphenyl)pyridazine-4-carboxamide]",682 nM
5,"Cc1ncc(NC(=O)c2cccc(C(F)(F)F)c2)cc1-c1cc(N2CCOCC2)nc(N2CC(O)C2)c1 [Example 1094, N-(2′-(3-hydroxyazetidin-1-yl)-2-methyl-6′-morpholino-[3,4′-bipyridin]-5-yl)-3-(trifluoromethyl)benzamide]",3.84 nM
6,"Cc1ncc(NC(=O)c2cccc(C(O)C(F)(F)F)c2)cc1-c1cnc(OC2CCOCC2)c(N2CCOCC2)c1 (stereo not drawn) [Example 977, N-(2-methyl-5′-morpholino-6′-((tetrahydro-2H-pyran-4-yl)oxy)[3,3′-bipyridin]-5-yl)-3-(2,2,2-trifluoro-1-hydroxyethyl)benzamide]",4.21 nM
7,"Cc1ncc(NC(=O)c2cccc(C(F)(F)F)c2)cc1-c1cnc(OC2CCS(=O)(=O)CC2)c(N2CCOCC2)c1 [Example 1034, N-(6′-((1,1-dioxidotetrahydro-2H-thiopyran-4-yl)oxy)-2-methyl-5′-morpholino-[3,3′-bipyridin]-5-yl)-3-(trifluoromethyl)benzamide]",1.59 nM

# Other lines, results leading:
row,IC50,Compound
1,0.57 nM,"Cc1ccc(NC(=O)c2cnnc(C(F)(F)F)c2)cc1-c1cc(OCCO)nc(N2CCOCC2)c1 [Example 1164, N-(3-(2-(2-hydroxyethoxy)-6-morpholinopyridin-4-yl)-4-methylphenyl)-6-(trifluoromethyl)pyridazine-4-carboxamide]"
2,1.5 nM,"Cc1ccc(NC(=O)c2ccnc(C(C)(C)C#N)c2)cc1-c1cc(OCCO)nc(N2CCOCC2)c1 [Example 1161, 2-(2-cyanopropan-2-yl)-N-(3-(2-(2-hydroxyethoxy)-6-morpholinopyridin-4-yl)-4-methylphenyl)isonicotinamide]"
3,2.8 nM,"Cc1ccc(NC(=O)c2ccnc(C(C)(C)C#N)c2)cc1-c1nc(N2CCOCC2)c2[nH]ccc2n1 [Example 863, 2-(2-cyanopropan-2-yl)-N-(4-methyl-3-(4-morpholino-5H-pyrrolo[3,2-d]pyrimidin-2-yl)phenyl)isonicotinamide]"
4,22.8 nM,"Cc1ncc(NC(=O)c2ccnc(S(C)(=O)=O)c2)cc1-c1cc(NCCO)nc(N2CCOCC2)c1 [Example 1043, N-(2′-((2-hydroxyethyl)amino)-2-methyl-6′-morpholino-[3,4′-bipyridin]-5-yl)-2-(methylsulfonyl)isonicotinamide]"
5,14.8 nM,"Cc1ccc(NC(=O)c2ccnc(C(F)F)c2)cc1-c1cc(NCCO)nc(N2CCOCC2)c1F [Example 1009, 2-(difluoromethyl)-N-(3-(3-fluoro-6-((2-hydroxyethyl)amino)-2-morpholinopyridin-4-yl)-4-methylphenyl)isonicotinamide]"
6,1.96 nM,"Cc1ccc(NC(=O)c2ccnc(S(C)(=O)=O)c2)cc1-c1cnc(OC[C@H](C)O)c(N2CCOCC2)c1 [Example 989, (S)—N-(3-(6-(2-hydroxypropoxy)-5-morpholinopyridin-3-yl)-4-methylphenyl)-2-(methylsulfonyl)isonicotinamide]"

# Same assay, conditions: read-out: b-Raf IC-50; Table 2; AlphaScreen, 3 hours reaction
row,Compound,IC50
1,"CCOc1ncc(-c2cc(NC(=O)c3cc(N4CCN(CC)CC4)cc(C(F)(F)F)c3)cnc2C)cc1N1CCOCC1 [Example 257, N-(6′-ethoxy-2-methyl-5′-morpholino-[3,3′-bipyridin]-5-yl)-3-(4-ethylpiperazin-1-yl)-5-(trifluoromethyl)benzamide]",10 nM
2,"Cc1ncc(NC(=O)c2cnnc(C(C)(C)C#N)c2)cc1-c1cncc(N2CCOCC2)c1 [Example 296, 6-(2-cyanopropan-2-yl)-N-(2-methyl-5′-morpholino-[3,3′-bipyridin]-5-yl)pyridazine-4-carboxamide]",24.7 nM
3,"Cc1ncc(NC(=O)c2cccc(C(F)(F)F)c2)cc1-c1cnc(OC2CNC2)c(N2CCOCC2)c1 [Example 325, N-(6′-(azetidin-3-yloxy)-2-methyl-5′-morpholino-[3,3′-bipyridin]-5-yl)-3-(trifluoromethyl)benzamide]",300 nM
4,"Cc1ncc(NC(=O)c2cccc(C(F)(F)F)c2)cc1-c1cnc(O[C@@H]2CCOC2)c(N2CCOCC2)c1 [Example 311, (R)—N-(2-methyl-5′-morpholino-6′-((tetrahydrofuran-3-yl)oxy)-[3,3′-bipyridin]-5-yl)-3-(trifluoromethyl)benzamide]",2.4 nM
5,"Cc1ccc(NC(=O)c2cncc(N(C)C)c2)cc1-c1cc(N2CCOCC2)nc(N2CCOCC2)n1 [Example 18, 5-(dimethylamino)-N-(3-(2,6-dimorpholinopyrimidin-4-yl)-4-methylphenyl)nicotinamide]",0.5 nM

# Now from value to molecule:
row,IC50,Compound
1,4.3 nM,"Cn1cc(-c2cc(NC(=O)c3ccnc(C(F)(F)F)c3)cnc2Cl)cc(N2CCOCC2)c1=O [Example 404, N-(2-chloro-1′-methyl-5′-morpholino-6′-oxo-1′,6′-dihydro-[3,3′-bipyridin]-5-yl)-2-(trifluoromethyl)isonicotinamide]"
2,1 nM,"Cc1ccc(NC(=O)c2ccnc(C3CC3)c2)cc1-c1cc(N2CCOCC2)c(=O)n(C)c1 [Example 354, 2-cyclopropyl-N-(4-methyl-3-(1-methyl-5-morpholino-6-oxo-1,6-dihydropyridin-3-yl)phenyl)isonicotinamide]"
3,600 nM,"Cc1ccc(NC(=O)c2ccnnc2)cc1-c1ccnc(N2CCOCC2)c1 [Example 72, N-(4-methyl-3-(2-morpholinopyridin-4-yl)phenyl)pyridazine-4-carboxamide]"
4,11.4 nM,"Cc1ncc(NC(=O)c2cccc(C(F)(F)F)c2)cc1-c1cc(N2CCOCC2)c(=O)n(CCC#N)c1 [Example 333, N-(1′-(2-cyanoethyl)-2-methyl-5′-morpholino-6′-oxo-1′,6′-dihydro-[3,3′-bipyridin]-5-yl)-3-(trifluoromethyl)benzamide]"
5,0.8 nM,"Cc1ccc(NC(=O)c2cccc(C(F)(F)F)c2)cc1-c1cnc(N2CCOCC2)s1 [Example 198, N-(4-methyl-3-(2-morpholinothiazol-5-yl)phenyl)-3-(trifluoromethyl)benzamide]"
